Among the data in PMC12073194, “Echinacoside Ameliorates UVB-Induced Skin Damage Through Selective Inhibition of the Cutaneous TRPV3 Channel” (Molecules, 2025) are IC50 values, retold here.

For this assay, the target named is T1, TRPV3 (hTRPV3, transient receptor potential vanilloid 3) (Homo sapiens, UniProt Q8NET8).
T1 construct: hTRPV3 (NM_145068.4)
T1 sequence (Q8NET8 1-790): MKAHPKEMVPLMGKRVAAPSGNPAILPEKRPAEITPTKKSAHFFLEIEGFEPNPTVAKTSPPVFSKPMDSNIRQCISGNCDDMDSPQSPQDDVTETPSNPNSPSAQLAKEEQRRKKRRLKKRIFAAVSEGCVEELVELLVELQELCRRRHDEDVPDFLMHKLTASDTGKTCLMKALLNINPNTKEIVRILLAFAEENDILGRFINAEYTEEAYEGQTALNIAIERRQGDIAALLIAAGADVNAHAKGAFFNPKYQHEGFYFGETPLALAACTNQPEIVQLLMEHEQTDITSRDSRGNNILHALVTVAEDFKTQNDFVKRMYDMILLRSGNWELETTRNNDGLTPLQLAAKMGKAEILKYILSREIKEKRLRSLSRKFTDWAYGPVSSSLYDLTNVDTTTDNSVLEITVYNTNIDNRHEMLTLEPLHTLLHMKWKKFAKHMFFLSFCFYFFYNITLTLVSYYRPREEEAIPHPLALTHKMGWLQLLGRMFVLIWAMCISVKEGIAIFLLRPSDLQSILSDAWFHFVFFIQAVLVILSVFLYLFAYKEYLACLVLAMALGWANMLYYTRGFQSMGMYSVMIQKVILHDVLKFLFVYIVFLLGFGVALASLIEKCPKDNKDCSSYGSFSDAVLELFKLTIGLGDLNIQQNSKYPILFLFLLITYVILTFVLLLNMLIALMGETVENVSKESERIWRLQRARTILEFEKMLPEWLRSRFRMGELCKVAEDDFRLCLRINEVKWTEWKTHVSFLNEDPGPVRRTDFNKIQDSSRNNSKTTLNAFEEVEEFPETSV
The experiment in a line: whole-cell and inside-out single-channel patch clamp in HEK293T cells; site-directed mutagenesis. Format: cell-based. (Patch clamp records ionic current or voltage across a cell membrane.)

As usually defined, the IC50 is the concentration that gives 50% inhibition. Read a high IC50 as a need for much substance. For `C[C@@H]1O[C@@H](O[C@@H]2[C@@H](O)[C@H](OCCc3ccc(O)c(O)c3)O[C@H](CO[C@@H]3O[C@H](CO)[C@@H](O)[C@H](O)[C@H]3O)[C@H]2OC(=O)/C=C/c2ccc(O)c(O)c2)[C@H](O)[C@H](O)[C@H]1O` [echinacoside], the IC50 was found to be 21.9 ± 1.28 µM.
